{"source": "patent US12552753B2", "about": "“Methods and compositions for targeting Tregs using CCR8 inhibitors” (Nanjing Immunophage Biomedical Co., Ltd., priority 2020, dated 2026)", "note": "Structures can show the parent of a compound that is named as a salt."}
{"molecular_target": "CCR8 (Homo sapiens, UniProt P51685)", "sequence (P51685 whole entry, the tested form may be a part)": "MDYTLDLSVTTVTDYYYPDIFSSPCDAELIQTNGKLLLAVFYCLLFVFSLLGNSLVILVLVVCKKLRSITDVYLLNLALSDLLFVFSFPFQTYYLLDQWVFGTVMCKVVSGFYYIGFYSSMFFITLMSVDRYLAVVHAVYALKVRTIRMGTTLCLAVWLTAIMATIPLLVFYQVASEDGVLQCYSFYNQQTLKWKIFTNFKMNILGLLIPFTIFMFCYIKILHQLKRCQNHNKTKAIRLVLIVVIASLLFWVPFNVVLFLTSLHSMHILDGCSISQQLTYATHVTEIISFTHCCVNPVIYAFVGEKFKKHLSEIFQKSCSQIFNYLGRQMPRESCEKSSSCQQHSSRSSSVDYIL", "assay": "Tango assay (Tango-CCR8-Gal4-CHO-K1 cells, CCL1-stimulated, ONE-Glo luminescence)", "conditions": "Tango Assay IC50, Inhibition of CCR8 Tango cell in vitro", "units": {"IC50": "µM"}}
{"smiles": "Cc1cc(S(=O)(=O)N[C@H](C)C2CC[N+](C)(C)CC2)ccc1NC(=O)c1ccccc1C", "note": "[Compound 301, (R)-1,1-dimethyl-4-(1-((3-methyl-4-(2-methylbenzamido)phenyl)sulfonamido)ethyl)piperidin-1-ium.chloride.]", "IC50": 0.102}
{"smiles": "Cc1ccccc1C(=O)Nc1c(C)cc(S(=O)(=O)N[C@H](C)C2CCNCC2)cc1F", "note": "[Compound 302, (R)-N-(2-fluoro-6-methyl-4-(N-(1-(piperidin-4-yl)eth-yl)sulfamoyl)phen-yl)-2-methylbenzamide hydrochloride]", "IC50": "> 100"}
{"smiles": "Cc1ccccc1C(=O)Nc1cc(C)c(S(=O)(=O)N[C@H](C)C2CCN(C)CC2)cc1F", "note": "[Compound 303, (R)-N-(2-fluoro-5-methyl-4-(N-(1-(1-methylpiperidin-4-yl)ethyl)sulfamoyl)phenyl)-2-methylbenzamide hydrochloride]", "IC50": 0.009}
{"smiles": "Cc1ccccc1C(=O)Nc1c(F)cc(S(=O)(=O)N[C@H](C)C2CCNCC2)cc1Cl", "note": "[Compound 304, (R)-N-(2-chloro-6-fluoro-4-(N-(1-(piperidin-4-yl)ethyl)sulfamoyl)phenyl)-2-methylbenzamide hydrochloride]", "IC50": 0.003}
{"smiles": "Cc1ccccc1C(=O)Nc1c(Cl)cc(S(=O)(=O)N[C@H](C)C2CCNCC2)cc1Cl", "note": "[Compound 305, (R)-N-(2,6-dichloro-4-(N-(1-(piperidin-4-yl)ethyl)sulfamoyl)phenyl)-2-methylbenzamide hydrochloride]", "IC50": 0.0015}
{"smiles": "Cc1ccccc1C(=O)Nc1cc(Cl)c(S(=O)(=O)N[C@H](C)C2CCN(C)CC2)cc1Cl", "note": "[Compound 306, (R)-N-(2,5-dichloro-4-(N-(1-(1-methylpiperidin-4-yl)ethyl)sulfamoyl)phenyl)-2-methylbenzamide hydrochloride]", "IC50": 0.006}
{"smiles": "Cc1ccccc1C(=O)Nc1cc(Cl)c(S(=O)(=O)N[C@@H](C)C2CCN(C)CC2)cc1Cl", "note": "[Compound 307, (S)-N-(2,5-dichloro-4-(N-(1-(1-methylpiperidin-4-yl)ethyl)sulfamoyl)phenyl)-2-methylbenzamide hydrochloride]", "IC50": "> 100"}
{"smiles": "Cc1ccccc1C(=O)Nc1ccc(S(=O)(=O)N[C@H](C)C2CCN(C)CC2)c(C)c1Cl", "note": "[Compound 308, (R)-N-(2-chloro-3-methyl-4-(N-(1-(1-methylpiperidin-4-yl)ethyl)sulfamoyl)phenyl)-2-methylbenzamide]", "IC50": "> 100"}
{"smiles": "Cc1cc(S(=O)(=O)N[C@H](C)C2CCNCC2)ccc1NC(=O)C12CCC(CC1)CC2", "note": "[Compound 309, hydrochloride]", "IC50": 0.01}
{"smiles": "Cc1cc(S(=O)(=O)N[C@H](C)C2CCNCC2)ccc1NC(=O)c1cccc2c1CCC2", "note": "[Compound 310, (R)-N-(2-methyl-4-(N-(1-(piperidin-4-yl)ethyl)sulfamoyl)phenyl)-2,3-dihydro-1H-indene-4-carboxamide hydrochloride]", "IC50": 0.005}
{"smiles": "Cc1ccccc1C(=O)Nc1cc(F)c(S(=O)(=O)NC2CCNCC2)cc1Cl", "note": "[Compound 311, N-(2-chloro-5-fluoro-4-(N-(piperidin-4-yl)sulfamoyl)phenyl)-2-methylbenzamide hydrochloride]", "IC50": "> 100"}
{"smiles": "CC(=O)N1CCC(NS(=O)(=O)c2cc(Cl)c(NC(=O)c3ccccc3C)cc2F)CC1", "note": "[Compound 312, N-(4-(N-(1-acetylpiperidin-4-yl)sulfamoyl)-2-chloro-5-fluorophenyl)-2-methylbenzamide]", "IC50": 0.301}
{"smiles": "Cc1cc(S(=O)(=O)N[C@H](C)C2CCNCC2)ccc1NC1(c2ccccc2)COC1", "note": "[Compound 313, (R)-3-methyl-4-((3-phenyloxetan-3-yl)amino)-N-(1-(piperidin-4-yl)ethyl)benzene-sulfonamide]", "IC50": 0.224}
{"smiles": "COc1cc(NC(=O)c2ccccc2C)c(C)cc1S(=O)(=O)N[C@H](C)C1CCNCC1", "note": "[Compound 314, (R)-N-(5-methoxy-2-methyl-4-(N-(1-(piperidin-4-yl)ethyl)sulfamoyl)phen-yl)-2-methylbenzamide hydrochloride]", "IC50": 0.017}
